# In patent EP2914280B1, “SOMATOSTATIN-DOPAMINE CHIMERIC ANALOGS” (IPSEN PHARMA S.A.S., priority 2012, dated 2014):
# Numbered stars: 1 amine (or outer) side, 2 acyl side, 3 side chain; on linkers, the order of the positions; unused ones are H or OH. Bridge positions count the residues as written; N and C are the ends. Square brackets hold non-standard residues; d marks the D form. Peptide text beside a SMILES is read from it. * marks the point of attachment. X1 = CN1C[C@H](CSCCN(CCSC[C@@H]2C[C@@H]3c4cccc5[nH]cc(c45)C[C@H]3N(C)C2)[C@H](CCCCN[*:2])C(=O)[*:1])C[C@@H]2c3cccc4[nH]cc(c34)C[C@H]21; X2 = CN1C[C@H](CSCC(=O)*)C[C@@H]2c3cccc4[nH]cc(c34)C[C@H]21; Phe(4-F) = N[C@@H](Cc1ccc(F)cc1)C(=O)O
# Assays:
# hSSTR2 [1] = target: T1, hSSTR2 (Homo sapiens, UniProt P30874); experiment: Intracellular calcium mobilization assay (FLIPR Calcium 4), hSSTR2; format: cell-based;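 also: agonist activity measured in cells expressing hSSTR2, seeded in 384-well plates, loaded with Calcium 4 dye, read-out as rise in intracellular calcium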
# T1 construct: host or cells: 'Cells expressing hSSTR2'
# hDRD2 [2] = target: T2, hDRD2 (Homo sapiens, UniProt P14416); experiment: biochemical; format: binding; parameters: expressed in transfected cells; host or cells: CHO-K1, pcDNA3.1/GS, zeocin-selected clonal line; membranes
# hSSTR2 [3] = target: T1, hSSTR2; experiment: Somatostatin receptor radioligand binding assay (hSSTR2);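 also: radioligand displacement on membranes of CHO-K1 cells stably transfected with human SSTR2, specific binding taken as total minus binding left with 1000 nM SRIF-14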
# Procedure: The affinities of a test compound for the human somatostatin receptors were determined by radioligand binding assays in CHO-K1 cells stably transfected with each of the human somatostatin receptor subtypes, hSSTR1-5. […] Clonal cell lines stably expressing each of the somatostatin receptors were obtained by transfection into CHO-K1 cells (ATCC) and subsequently selected with culture media containing 0.8 mg/mL of G418 (Life Technologies).
# Membranes for in vitro receptor binding assays were obtained by the following procedures. […] The supernatant containing the plasma membranes was centrifuged at 100,000 x g for 30 minutes and the pellet was resuspended in buffer containing 20 mM glycine-glycine, 1 mM MgCl2, 250 mM sucrose, pH 7.2, for storage at -80°C.
# For the SSTR1, 2 and 5 assays, membranes and various concentrations of test compounds were incubated in 96-well plates for 60 minutes at 25°C with 0.05 nM [^125I-Tyr^11]-SRIF-14 (for hSSTR1; PerkinElmer Life Science), 0.05 nM [^125I-Tyr]-seglitide (for hSSTR2; PerkinElmer Life Science) or 0.05 nM [^125I-Tyr]-[DPhe-cyclo(Cys-Tyr-DTrp-Lys-Val-Cys)-Thr-NH2] (for hSSTR5; PerkinElmer Life Science) in 50 mM HEPES, 0.2% BSA, 0.1 mM MgCl2, pH 7.5.
# The incubations were terminated by rapid filtration through GF/C glass microfiber filter plates (pre-wet with 0.3% polyethyleneimine and 0.1 % BSA) using a 96-well cell harvester (Brandel). Plates were washed six times with 1 mL/well aliquots of ice-cold buffer containing 50 mM Tris buffer, pH 7.7. Specific binding was defined as the total radioligand bound minus the bound in the presence of 1000 nM SRIF-14.
# hDRD2 [4] = target: T2, hDRD2; experiment: cell-based; parameters: host or cells: 'Cells expressing hDRD2'; conditions: for Emax: read-out: hDRD2 %Emax ± SEM
# Procedure: The ability of select compounds according to the present invention to activate hSSTR2 and hDRD2 was determined by the intracellular calcium mobilization assay using FLIPR Calcium 4 assay kit (Molecular Devices).
# Cells expressing hSSTR2 or hDRD2 were plated in 384-well microplates in tissue culture media and incubated for 16-24 hours at 37°C in a humidified atmosphere with 5% CO2. Medium was replaced by loading buffer containing Hank's buffered saline, 20 mM HEPES, 2.5 mM probenecid and Calcium 4 dye, and the plates were incubated at 37°C for 60 minutes.
# 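For Emax in this document: agonist activity at human DRD2 in DRD2-expressing cells, read as intracellular calcium mobilization with a FLIPR Calcium 4 fluorescent dye.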
# T1 sequence (P30874 whole entry): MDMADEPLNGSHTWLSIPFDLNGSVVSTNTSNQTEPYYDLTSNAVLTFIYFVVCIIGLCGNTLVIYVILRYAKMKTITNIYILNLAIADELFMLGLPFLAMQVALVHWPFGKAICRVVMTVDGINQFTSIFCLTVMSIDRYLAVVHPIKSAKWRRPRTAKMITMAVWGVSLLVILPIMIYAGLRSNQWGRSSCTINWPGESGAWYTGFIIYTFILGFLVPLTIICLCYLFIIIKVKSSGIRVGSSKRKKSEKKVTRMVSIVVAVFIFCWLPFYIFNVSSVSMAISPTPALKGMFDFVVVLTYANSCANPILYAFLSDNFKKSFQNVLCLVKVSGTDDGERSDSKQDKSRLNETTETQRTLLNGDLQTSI
# T2 sequence (P14416 whole entry): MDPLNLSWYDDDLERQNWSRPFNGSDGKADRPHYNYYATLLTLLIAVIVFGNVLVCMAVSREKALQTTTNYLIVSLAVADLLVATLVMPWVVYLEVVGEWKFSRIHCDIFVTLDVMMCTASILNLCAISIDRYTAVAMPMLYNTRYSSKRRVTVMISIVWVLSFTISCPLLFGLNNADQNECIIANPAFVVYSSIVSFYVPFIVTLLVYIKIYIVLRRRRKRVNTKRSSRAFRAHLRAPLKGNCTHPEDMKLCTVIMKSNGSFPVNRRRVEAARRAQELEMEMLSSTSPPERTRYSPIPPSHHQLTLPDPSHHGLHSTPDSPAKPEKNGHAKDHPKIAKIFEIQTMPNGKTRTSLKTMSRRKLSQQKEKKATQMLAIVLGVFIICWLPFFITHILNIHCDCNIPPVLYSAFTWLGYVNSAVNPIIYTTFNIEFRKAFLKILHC
SMILES,EC50 (hSSTR2 [1]) [nM],Ki (hDRD2 [2]) [nM],Ki (hSSTR2 [3]) [nM],EC50 (hDRD2 [4]) [nM],Emax (hDRD2 [4]) [%]
"C[C@@H](O)[C@@H]1NC(=O)[C@H](CCCCN)NC(=O)[C@@H](Cc2c[nH]c3ccccc23)NC(=O)[C@H](Cc2ccccc2)NC(=O)[C@H](Cc2ccccc2)NC(=O)[C@H](CCCNC(=N)N)NC(=O)[C@H](NCCSC[C@@H]2C[C@@H]3c4cccc5[nH]cc(c45)C[C@H]3N(C)C2)CCCCNC(=O)[C@H](Cc2ccc(F)c(F)c2)NC1=O [Compound 6A, Dop1-psi(CH2NH)-cyclo(DLys-Arg-Phe-Phe-DTrp-Lys-Thr-3,4FPhe)]",15.7 ± 4.3,16.9 ± 0.2,0.35,62.1 ± 16.4,91.5 ± 3
"C[C@@H](O)[C@@H]1NC(=O)[C@H](CCCCN)NC(=O)[C@@H](Cc2c[nH]c3ccccc23)NC(=O)[C@H](Cc2ccccc2)NC(=O)[C@H](Cc2ccccc2)NC(=O)[C@H](CCCNC(=N)N)NC(=O)[C@H](N(CCSC[C@@H]2C[C@@H]3c4cccc5[nH]cc(c45)C[C@H]3N(C)C2)CCSC[C@@H]2C[C@@H]3c4cccc5[nH]cc(c45)C[C@H]3N(C)C2)CCCCNC(=O)[C@H](Cc2ccc(F)cc2)NC1=O [Compound 39, bis[Dop1-psi(CH2N)]-cyclo(DLys-Arg-Phe-Phe-DTrp-Lys-Thr-4FPhe)] (RFF[dW]KT[Phe(4-F)]; linker N-C via X1)",25.9 ± 6.9,330 ± 59.5,3.72 ± 2.01,114 ± 24.4,95.7 ± 2.4
"CC(=O)N(CCCNC[C@@H]1C[C@@H]2c3cccc4[nH]cc(c34)C[C@H]2N(C)C1)[C@@H]1CCCCNC(=O)[C@H](Cc2ccc(F)cc2)NC(=O)[C@H]([C@@H](C)O)NC(=O)[C@H](CCCCN)NC(=O)[C@@H](Cc2c[nH]c3ccccc23)NC(=O)[C@H](Cc2ccccc2)NC(=O)[C@H](Cc2ccccc2)NC(=O)[C@H](CCCNC(=N)N)NC1=O [Compound 22, 3-[N-(D-6-methyl-8β-ergolinylmethyl)]-aminopropionyl-psi(CH2NAc)-cyclo(DLys-Arg-Phe-Phe-DTrp-Lys-Thr-4FPhe)]",27.5 ± 6.7,200 ± 65,0.35 ± 0.18,513 ± 129,38.7 ± 8.8
"C[C@@H](O)[C@@H]1NC(=O)[C@H](CCCCN)NC(=O)[C@@H](Cc2c[nH]c3ccccc23)NC(=O)[C@H](Cc2ccccc2)NC(=O)[C@H](Cc2ccccc2)NC(=O)[C@H](CCCNC(=N)N)NC(=O)[C@@H](NC[C@H](Cc2ccc(O)cc2)NC(=O)CSC[C@@H]2C[C@@H]3c4cccc5[nH]cc(c45)C[C@H]3N(C)C2)CCCCNC(=O)[C@H](Cc2ccccc2)NC1=O [Compound 31, Dop1-Tyr-psi(CH2NH)-cyclo(Lys-Arg-Phe-Phe-DTrp-Lys-Thr-Phe)]",13.3 ± 0.9,38.6 ± 28.6,0.51 ± 0.1,37.7 ± 4.6,94.8 ± 9.7
"C[C@@H](O)[C@@H]1NC(=O)[C@H](CCCCN)NC(=O)[C@@H](Cc2c[nH]c3ccccc23)NC(=O)[C@H](Cc2ccncc2)NC(=O)[C@H](Cc2ccccc2)NC(=O)[C@H](CCCNC(=N)N)NC(=O)[C@H](NC[C@H](Cc2ccc(O)cc2)NC(=O)CS(=O)(=O)C[C@@H]2C[C@@H]3c4cccc5[nH]cc(c45)C[C@H]3N(C)C2)CCCCNC(=O)[C@H](Cc2ccccc2)NC1=O [Compound 21, Dop1(SO2)-Tyr-psi(CH2NH)-cyclo(DLys-Arg-Phe-4Pal-DTrp-Lys-Thr-Phe)]",0.9 ± 0.1,> 1000,0.02 ± 0.01,208 ± 26.8,92.1 ± 0.2
"C[C@@H](O)[C@@H]1NC(=O)[C@H](CCCCN)NC(=O)[C@@H](Cc2c[nH]c3ccccc23)NC(=O)[C@H](Cc2ccccc2)NC(=O)[C@H](Cc2ccccc2)NC(=O)[C@H](CCCNC(=N)N)NC(=O)[C@H](NC[C@H](Cc2ccc(O)cc2)NC(=O)CS(=O)(=O)C[C@@H]2C[C@@H]3c4cccc5[nH]cc(c45)C[C@H]3N(C)C2)CCCCNC(=O)[C@H](Cc2ccc(F)cc2)NC1=O [Compound 19, Dop1(SO2)-Tyr-psi(CH2NH)-cyclo(DLys-Arg-Phe-Phe-DTrp-Lys-Thr-4FPhe)]",4.3 ± 1.2,> 1000,0.16 ± 0.12,701 ± 220,90.7 ± 5.7
"C[C@@H](O)[C@@H]1NC(=O)[C@H](CCCCN)NC(=O)[C@@H](Cc2c[nH]c3ccccc23)NC(=O)[C@H](Cc2ccccc2)NC(=O)[C@H](Cc2ccccc2)NC(=O)[C@H](CCCNC(=N)N)NC(=O)[C@H](NCCSC[C@@H]2C[C@@H]3c4cccc5[nH]cc(c45)C[C@H]3N(C)C2)CCCCNC(=O)[C@H](Cc2ccccc2F)NC1=O [Compound 6D, Dop1-psi(CH2NH)-cyclo(DLys-Arg-Phe-Phe-DTrp-Lys-Thr-2FPhe)]",25 ± 7.7,31.8 ± 11.8,0.54 ± 0.12,64.5 ± 20.5,101 ± 2.7
"CC(=O)N(CCCN(C(C)=O)[C@@H]1CCCCNC(=O)[C@H](Cc2ccc(F)cc2)NC(=O)[C@H]([C@@H](C)O)NC(=O)[C@H](CCCCN)NC(=O)[C@@H](Cc2c[nH]c3ccccc23)NC(=O)[C@H](Cc2ccccc2)NC(=O)[C@H](Cc2ccccc2)NC(=O)[C@H](CCCNC(=N)N)NC1=O)C[C@@H]1C[C@@H]2c3cccc4[nH]cc(c34)C[C@H]2N(C)C1 [Compound 28, 3-[N-acetyl-N-(D-6-methyl-8β-ergolinylmethyl)]-aminopropionyl-psi(CH2NAc)-cyclo(DLys-Arg-Phe-Phe-DTrp-Lys-Thr-4FPhe)]",11.8 ± 7.6,39.9 ± 10.4,0.75 ± 0.27,265 ± 104,56 ± 9.1
"CC(=O)N(CCCN[C@@H]1CCCCNC(=O)[C@H](Cc2ccc(F)cc2)NC(=O)[C@H]([C@@H](C)O)NC(=O)[C@H](CCCCN)NC(=O)[C@@H](Cc2c[nH]c3ccccc23)NC(=O)[C@H](Cc2ccccc2)NC(=O)[C@H](Cc2ccccc2)NC(=O)[C@H](CCCNC(=N)N)NC1=O)C[C@@H]1C[C@@H]2c3cccc4[nH]cc(c34)C[C@H]2N(C)C1 [Compound 29A, 3-[N-acetyl-(D-6-methyl-8β-ergolinylmethyl)]-aminopropionyl-psi(CH2NH)-cyclo(DLys-Arg-Phe-Phe-DTrp-Lys-Thr-4FPhe)]",8.2 ± 0.7,46.8 ± 7.4,0.13,62.7 ± 14.8,82.8 ± 6.7
"C[C@@H](O)[C@@H]1NC(=O)[C@H](CCCCN)NC(=O)[C@@H](Cc2c[nH]c3ccccc23)NC(=O)[C@H](Cc2ccccc2)NC(=O)[C@H](Cc2ccccc2)NC(=O)[C@H](CCCNC(=N)N)NC(=O)[C@H](NC(=O)CSC[C@@H]2C[C@@H]3c4cccc5[nH]cc(c45)C[C@H]3N(C)C2)CCCCNC(=O)[C@H](Cc2ccc(F)cc2)NC1=O [Compound 34, Dop1-cyclo(DLys-Arg-Phe-Phe-DTrp-Lys-Thr-4FPhe)] (X2-[dK]RFF[dW]KT[Phe(4-F)]; lactam 1-C)",14.6 ± 5.7,299,4.55 ± 1.15,72.7,77.9
"C[C@@H](O)[C@@H]1NC(=O)[C@H](CCCCN)NC(=O)[C@@H](Cc2c[nH]c3ccccc23)NC(=O)[C@H](Cc2ccccc2)NC(=O)[C@H](Cc2ccccc2)NC(=O)[C@H](CCCNC(=N)N)NC(=O)[C@H](NCCSC[C@@H]2C[C@@H]3c4cccc5[nH]cc(c45)C[C@H]3N(C)C2)CCCCNC(=O)[C@H](Cc2cc(F)cc(F)c2)NC1=O [Compound 6B, Dop1-psi(CH2NH)-cyclo(DLys-Arg-Phe-Phe-DTrp-Lys-Thr-3,5FPhe)]",17 ± 6.5,25.4 ± 7.9,0.25 ± 0.03,112 ± 27.8,85.1 ± 9.6
"C[C@@H](O)[C@@H]1NC(=O)[C@H](CCCCN)NC(=O)[C@@H](Cc2c[nH]c3ccccc23)NC(=O)[C@H](Cc2ccccc2)NC(=O)[C@H](Cc2ccccc2)NC(=O)[C@H](CCCNC(=N)N)NC(=O)[C@H](NCCCC[C@@H]2C[C@@H]3c4cccc5[nH]cc(c45)C[C@H]3N(C)C2)CCCCNC(=O)[C@H](Cc2ccc(F)cc2)NC1=O [Compound 2, (D-6-methyl-8β-ergolinyl)-butanoyl-psi(CH2NH)-cyclo(DLys-Arg-Phe-Phe-DTrp-Lys-Thr-4FPhe)]",21.1 ± 6.7,6.9 ± 0.4,0.79 ± 0.06,55.7 ± 12.4,84 ± 7.6
"C[C@@H](O)[C@@H]1NC(=O)[C@H](CCCCN)NC(=O)[C@@H](Cc2c[nH]c3ccccc23)NC(=O)[C@H](Cc2ccccc2)NC(=O)[C@H](Cc2ccccc2)NC(=O)[C@H](CCCNC(=N)N)NC(=O)[C@H](NCCCS(=O)(=O)C[C@@H]2C[C@@H]3c4cccc5[nH]cc(c45)C[C@H]3N(C)C2)CCCCNC(=O)[C@H](Cc2ccc(F)cc2)NC1=O [Compound 48, (D-6-methyl-8β-ergolinylmethyl)-sulfonylpropyl-cyclo(DLys-Arg-Phe-Phe-DTrp-Lys-Thr-4FPhe)]",23.6 ± 7.9,19.4 ± 2.8,0.25 ± 0.1,78.3 ± 15.2,76.5 ± 2.8
"C[C@@H](O)[C@@H]1NC(=O)[C@H](CCCCN)NC(=O)[C@@H](Cc2c[nH]c3ccccc23)NC(=O)[C@H](Cc2ccccc2)NC(=O)[C@H](Cc2ccccc2)NC(=O)[C@H](CCCNC(=N)N)NC(=O)[C@H](NCCSC[C@@H]2C[C@@H]3c4cccc5[nH]cc(c45)C[C@H]3N(C)C2)CCCCNC(=O)[C@H](Cc2c(F)c(F)c(F)c(F)c2F)NC1=O [Compound 6E, Dop1-psi(CH2NH)-cyclo(DLys-Arg-Phe-Phe-DTrp-Lys-Thr-2,3,4,5,6FPhe)]",223 ± 13.7,40.4 ± 13.2,5.48 ± 3.38,480 ± 125,54.1 ± 20.6
"C[C@@H](O)[C@@H]1NC(=O)[C@H](CCCCN)NC(=O)[C@@H](Cc2c[nH]c3ccccc23)NC(=O)[C@H](Cc2ccccc2)NC(=O)[C@H](Cc2ccccc2)NC(=O)[C@H](CCCNC(=N)N)NC(=O)[C@H](NCCSC[C@@H]2C[C@@H]3c4cccc5[nH]cc(c45)C[C@H]3N(C)C2)CCCCNC(=O)[C@H](Cc2cccc(F)c2)NC1=O [Compound 6C, Dop1-psi(CH2NH)-cyclo(DLys-Arg-Phe-Phe-DTrp-Lys-Thr-3FPhe)]",16.2 ± 5.9,30.3 ± 3.7,0.15 ± 0.04,60 ± 21.7,94.4 ± 5.1
